Experimental findings from patent US6727263B2, “Indole and 2,3-dihydroindole derivatives, their preparation and use” (H. Lundbeck A/S, priority 1997, dated 2004) are described below.

Data set [1] relates to 3H-5-HT uptake into whole rat brain synaptosomes. As to the kind of experiment: Inhibition of 3H-5-HT uptake into rat brain synaptosomes. The settings on record: 3H-5-HT accumulation into whole rat brain synaptosomes, in vitro; read-out: Inhibition of serotonin reuptake IC50. It counts as biochemical. The procedure: Inhibition of ^3H-5-HT Uptake Into Rat Brain Synaptosomes
Using this method the ability of drugs to inhibit the accumulation of ^3H-5-HT into whole rat brain synaptosomes is determined in vitro.

A further data set concerns the target T1, human 5-HT1A receptors (Homo sapiens, UniProt P08908).
T1 construct: expressed in transfected cells; host or cells: HeLa cells (HA7), used as cell homogenate
T1 sequence (P08908 1-422): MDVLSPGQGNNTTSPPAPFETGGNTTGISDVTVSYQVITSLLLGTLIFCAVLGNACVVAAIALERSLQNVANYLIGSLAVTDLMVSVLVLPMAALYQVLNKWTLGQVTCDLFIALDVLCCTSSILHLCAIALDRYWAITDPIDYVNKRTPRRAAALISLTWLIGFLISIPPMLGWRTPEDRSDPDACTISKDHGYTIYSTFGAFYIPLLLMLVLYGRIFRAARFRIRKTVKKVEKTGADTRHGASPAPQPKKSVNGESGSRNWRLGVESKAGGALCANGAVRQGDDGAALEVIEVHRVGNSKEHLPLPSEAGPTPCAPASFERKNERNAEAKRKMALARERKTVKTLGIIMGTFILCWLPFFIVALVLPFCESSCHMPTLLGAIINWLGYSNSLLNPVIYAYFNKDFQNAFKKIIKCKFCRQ
As to the kind of experiment: Inhibition of 3H-5-CT binding to human 5-HT1A receptors. The method, then: Inhibition of ^3H-5-CT Binding to Human 5-HT1A Receptors
Human 5-HT1A receptors (40 μg of cell homogenate) were incubated for 15 minutes at 37° C. in 50 mM Tris buffer at pH 7.7 in the presence of ^3H-5-CT. Non-specific binding was determined by including 10 μM of metergoline. The reaction was terminated by rapid filtration through Unifilter GF/B filters on a Tomtec Cell Harvester. Filters were counted in a Packard Top Counter.

The next data set has as its target T2, cloned 5-HT1A receptors (Homo sapiens, UniProt P08908).
T2 construct: expressed in transfected cells; host or cells: HeLa cells (HA7)
T2 sequence (P08908 1-422): T1 sequence (P08908 1-422)
As to the kind of experiment: Antagonism of 5-HT induced inhibition of forskolin induced cAMP accumulation. It counts as cell-based. The conditions noted are these: cloned 5-HT1A receptors in transfected HeLa cells (HA7). The method, then: The assay was performed as a modification of the method described by Pauwels, P. J et al, Biochem. Pharmacol. 1993, 45, 375.
For orientation: Cyclic AMP is a second messenger, typically raised through Gs and lowered through Gi signalling.

Where a name gives a salt, the structure may show the parent alone. Read-outs that look alike come from different tables or passages of the source.

In the case of `Clc1cc2c(c(N3CCN(CCc4c[nH]c5cc(Cl)ccc45)CC3)c1)OCCO2.O=C(O)C(=O)O` [Compound 1l, 6-Chloro-3-[2-[4-(7-chloro-1,4-benzodioxan-5-yl)piperazin-1-yl]ethyl]-1H-indole oxalate], the melting point lay in the range of 237 to 238 °C. The IC50 in data set [1] turned out to be 7.7 nM. Also, at human 5-HT1A receptors, the IC50 is 12 nM.
The molecule `Clc1ccc2c(CCN3CCN(c4cccc5ccoc45)CC3)c[nH]c2c1` [Compound 1u, 3-[2-[4-(Benzofuran-7-yl)piperazin-1-yl]ethyl]-6-chloro-1H-indole] came in with a melting point of 202 to 204 °C. It took 2000 nM to reach half-maximal inhibition against cloned 5-HT1A receptors (IC50).
For the molecule `CC1(C)Cc2cccc(C3=CCN(CCc4c[nH]c5cc(Cl)ccc45)CC3)c2O1` (as salt: oxalate) [Compound 1g, 6-Chloro-3-[2-[4-(2,2,-dimethyl-2,3,-dihydrohydrobenzofuran-7-yl)-1,2,3,6-tetrahydro-1-pyridyl]ethyl]-1H-indole oxalate], the melting point fell in the range of 200 to 204 °C.
The same measure, in the same setting: under `Clc1ccc2ccn(CCN3CCN(c4cccc5c4OCCO5)CC3)c2c1.O=C(O)C(=O)O` stands 234 to 235 °C.
`CC1(C)COc2c(N3CCN(CCc4c[nH]c5cc(Cl)ccc45)CC3)cc(Cl)cc21` [Compound 3c, 6-Chloro-3-[2-[4-(5-chloro-3,3-dimethyl-2,3-dihydrobenzofuran-7-yl)piperazin-1-yl]ethyl]-1H-indole hemifumarate] gave an IC50 against cloned 5-HT1A receptors of 2600 nM.
The molecule `C=CCN1CC(CCN2CCN(c3cccc4c3OCCO4)CC2)c2ccccc21.O=C(O)C(=O)O` (stereo not drawn) returned a melting point of 133 to 136 °C.
With `Cc1cc2c(c(C3CCN(CCc4c[nH]c5cc(Cl)ccc45)CC3)c1)OC(C)(C)C2.O=C(O)/C=C/C(=O)O` [Compound 1d, 6-Chloro-3-[2-[4-(2,2,5-trimethyl-2,3-dihydrobenzofuran-7-yl)piperidin-1-yl]ethyl]-1H-indole fumarate], the melting point lay within 232 to 237 °C. Also, the IC50 in data set [1] amounted to 36 nM. On human 5-HT1A receptors, this molecule displayed an IC50 of 55 nM.
`O=C(O)C(=O)O.c1cc2c(c(N3CCN(CCn4ccc5ccccc54)CC3)c1)OCC2` gave a melting point of 223 to 226 °C.
Consider `Clc1ccc2[nH]cc(CCN3CCN(c4cccc5ccsc45)CC3)c2c1.O=C(O)C(=O)O`, for which the melting point lay within 175.2 to 176.6 °C.
In the case of `Cc1[nH]c2ccccc2c1CCN1CCN(c2cccc3c2OCCO3)CC1.O=C(O)C(=O)O` [Compound 1c, 3-[2-[4-(1,4-Benzodioxan-5-yl)piperazin-1-yl]ethyl]-2-methyl-1H-indole oxalate], the melting point lay within 205 to 208 °C. Besides, the IC50 in data set [1] came out at 45 nM. This molecule gave an IC50 on human 5-HT1A receptors of 2.5 nM.
`Fc1ccc2[nH]cc(CCN3CCC(c4cccc5ccoc45)CC3)c2c1.O=C(O)C(=O)O` registered a melting point of 191 to 194 °C.
Consider `Clc1ccc2c(CCN3CCN(c4cccc5c4OCC5)CC3)c[nH]c2c1.O=C(O)C(=O)O` [Compound 1o, 6-Chloro-3-[2-[4-(2,3-dihydrobenzofuran-7-yl)piperazin-1-yl]ethyl]-1H-indole oxalate], for which the melting point lay within 205 to 207 °C. On cloned 5-HT1A receptors, the IC50 is 3200 nM.
As for `Brc1ccc2[nH]cc(CCN3CC=C(c4cccc5ccoc45)CC3)c2c1.O=C(O)C(=O)O`, the melting point lay within 185 to 194 °C.
For the molecule `Clc1ccc2c(CCN3CC=C(c4cccc5c4OCC5)CC3)c[nH]c2c1.O=C(O)C(=O)O` [Compound 1x, 6-Chloro-3-[2-[4-(2,3-dihydrobenzofuran-7-yl)-1,2,3,6-tetrahydropyridin-1-yl]ethyl]-1H-indole oxalate], the melting point lay within 211 to 214 °C. Moreover, the IC50 on cloned 5-HT1A receptors came to 3000 nM.
Consider `Clc1ccc2c(CCN3CCN(c4cccc5c4SCCC5)CC3)c[nH]c2c1` [Compound 1t], for which, on cloned 5-HT1A receptors, the IC50 came to 5900 nM.
The molecule `O=C(O)C(=O)O.c1cc2c(c(N3CCN(CCn4ccc5ccccc54)CC3)c1)OCCO2` yielded a melting point of 225 to 229 °C.
Same read-out and setting: then `Clc1ccc2c(c1)C(CCN1CCN(c3cccc4c3OCCO4)CC1)CN2.O=C(O)C(=O)O` (stereo not drawn), with 153 to 157 °C; and `C#CCn1cc(CCN2CCN(c3cccc4c3OCCO4)CC2)c2ccccc21.O=C(O)C(=O)O`, with 168 to 172 °C.
The same measure, in the same setting: under `Clc1ccc2c(CCN3CCN(c4cccc5c4SCC=C5)CC3)c[nH]c2c1` [Compound 1t] stands 178 to 179 °C.
Still for that read-out and setting: under `Clc1ccc2[nH]cc(CCN3CCN(c4cccc5c4SCC=C5)CC3)c2c1` stands 152 to 153 °C; under `Fc1ccc2c(ccn2CCN2CCN(c3cccc4c3OCCO4)CC2)c1.O=C(O)C(=O)O`, 230 to 231 °C.
Molecule `O=C(O)C(=O)O.c1ccc(CN2CC(CCN3CCN(c4cccc5c4OCCO5)CC3)c3ccccc32)cc1` (stereo not drawn) yielded a melting point of 158 to 165 °C.
`Fc1ccc2[nH]cc(CCN3CCN(c4cccc5c4OCC5)CC3)c2c1.O=C(O)C(=O)O` had a melting point of 145 to 149 °C.
`CN1CC(CCN2CCN(c3cccc4c3OCCO4)CC2)c2ccccc21` (stereo not drawn) [Compound 6a, 3-[2-[4-(1,4-Benzodioxan-5-yl)Piperazin-1-yl]Ethyl]-2,3-Dihydro-1-Methyl-1H-Indole Oxalate]: inhibition at cloned 5-HT1A receptors was half-maximal at 100 nM (IC50).
The molecule `CC1(C)Cc2cccc(N3CCN(CCc4c[nH]c5cc(Cl)ccc45)CC3)c2O1.O=C(O)/C=C/C(=O)O` showed a melting point of 165 to 167 °C.
For `CC1(C)Cc2cc(Cl)cc(N3CCN(CCc4c[nH]c5ccccc45)CC3)c2O1` [Compound 3b, 3-[2-[4-(5-Chloro-2,2-dimethyl-2,3-dihydrobenzofuran-7-yl)piperazin-1-yl]ethyl]-1H-indole hemifumarate], the IC50 in data set [1] is 8.3 nM; on human 5-HT1A receptors (read-out: Inhibition of 3H-5-CT binding IC50, cloned human 5-HT1A receptors expressed in transfected HeLa cells (HA7), cell homogenate, 15 minutes at 37° C., pH 7.7), 3.6 nM.
For `Clc1ccc2c(ccn2CCN2CCN(c3cccc4c3OCCO4)CC2)c1.O=C(O)C(=O)O`, the melting point was 234 to 235 °C.
On the same count and under the same terms, under `Brc1ccc2[nH]cc(CCN3CCC(c4cccc5ccoc45)CC3)c2c1.O=C(O)C(=O)O` stands 153 to 157 °C.
For `Clc1ccc2c(CCN3CCN(c4c(Cl)ccc5c4OCCO5)CC3)c[nH]c2c1.O=C(O)C(=O)O` [Compound 1m, 6-Chloro-3-[2-[4-(6-Chloro-1,4-benzodioxan-5-yl)piperazin-1-yl]ethyl]-1H-indole oxalate], the melting point was 216 to 217 °C. For the same molecule, in data set [1], the IC50 amounted to 57 nM. For the same molecule, the IC50 on human 5-HT1A receptors was determined as 99 nM.
`CC1(C)Cc2cccc(C3CCN(CCc4c[nH]c5cc(Cl)ccc45)CC3)c2O1` (as salt: oxalate) [Compound 1f, 6-Chloro-3-[2-[4-(2,2, -dimethyl-2,3-dihydrobenzofuran-7-yl)piperidin-1-yl]ethyl]-1H-indole oxalate] yielded a melting point of 190 to 193 °C.
Same read-out and setting: then `COc1ccc2[nH]cc(CCN3CCN(c4cccc5c4OCCO5)CC3)c2c1` (as salt: oxalate) [Compound 1i, 3-[2-[4-(1,4-Benzodioxan-5-yl)piperazin-1-y]ethyl]-5-methoxy-1H-indole hemioxalate], with 189 to 196 °C; and `Brc1ccc2[nH]cc(CCN3CCN(c4cccc5c4SCC=C5)CC3)c2c1`, with 166 to 167 °C.
Same read-out and setting: under `C=CCn1cc(CCN2CCN(c3cccc4c3OCCO4)CC2)c2ccccc21.O=C(O)C(=O)O` stands 187 to 190 °C.

For orientation: IC50 means the concentration that inhibits the measured activity by half. In general, melting point refers to the temperature, or range, at which the solid turns liquid.
